Test results taken from patent US10175256B2, “Compositions and methods utilizing lysophosphatidylcholine scaffolds” (National University Of Singapore, priority 2013, dated 2019).
Where “and” joins values, the source holds several entries; their conditions need not be identical. Equal entries are not always repeated.

Tests used:
mouse Mfsd2a [1] = biological target: T1, mouse Mfsd2a (Mus musculus, UniProt Q9DA75); assay: Cell-based free fatty acid transport/uptake in Mfsd2a expressing HEK293 cells (mass spectrometry, TLC; Table 1); conditions: replicate columns; for Amount of each lipid species, mol percent in total phospholipid analysed: Mfsd2a expressing HEK293 cells incubated with 100 uM Arachidonic fatty acid/BSA complex overnight; for Amount of lipid species, mol percent in total phospholipid analysed / Amount of each lipid species normalized to internal standard, mol percent in total phospholipid analysed: Mfsd2a expressing HEK293 cells
T1 construct: expressed in transfected cells; host or cells: HEK293
T1 sequence (Q9DA75 1-534): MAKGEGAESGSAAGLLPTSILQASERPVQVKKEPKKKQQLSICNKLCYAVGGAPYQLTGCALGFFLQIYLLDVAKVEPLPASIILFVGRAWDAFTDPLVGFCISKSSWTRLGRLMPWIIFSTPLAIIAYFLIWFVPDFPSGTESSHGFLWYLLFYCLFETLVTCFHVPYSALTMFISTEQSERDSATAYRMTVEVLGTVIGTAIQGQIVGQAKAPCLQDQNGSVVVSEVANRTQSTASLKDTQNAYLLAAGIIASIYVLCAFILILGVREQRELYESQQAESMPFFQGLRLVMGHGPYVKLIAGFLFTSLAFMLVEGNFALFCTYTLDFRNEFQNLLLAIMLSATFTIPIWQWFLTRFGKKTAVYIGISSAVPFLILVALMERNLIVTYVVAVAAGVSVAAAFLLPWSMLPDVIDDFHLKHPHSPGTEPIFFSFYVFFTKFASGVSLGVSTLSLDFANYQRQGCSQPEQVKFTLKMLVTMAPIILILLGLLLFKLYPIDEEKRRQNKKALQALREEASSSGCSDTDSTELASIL
Method: (§1) FIG. 12. […] Std: free [^14C]-DHA. b. TLC analysis of phospholipids and neutral lipids of HEK293 cells transfected with mouse Mfsd2a and mutants after overnight incubation with 100 μM [^14C]-oleate. TLC protocol used was described in Methods. PC: phosphatidylcholine, PE: phosphatidylethanolamine, TAG: triglyceride, CE: cholesteryl ester.
(§2) For tissue lipid analysis, brain, liver, and heart of female WT and KO mice with age of 7-8 weeks born to HET mothers, and brains from e18.5 embryos were collected and immediately frozen with liquid nitrogen until extraction. Lipid extraction was followed by chloroform/methanol method. For cell-based free fatty acid transport, lipids from HEK293 cells expressing mouse Mfsd2a and mock controls after overnight treatment with 100 μM docosahexaenoic, arachidonic, eicosapentaenoic, alpha-linolenic, linoleic, oleic, palmitic acids in BSA complex were extracted using HIP buffer (hexane:iso-propanol 3:2, per volume) and dried under N2 gas. Phospholipid species were measured by high performance liquid chromatography (HPLC) 1100 system (Agilent) coupled with an Triple Quadrupole/Ion Trap mass spectrometer (4000Qtrap, Applied Biosystem). Levels of individual phospholipid species were analyzed as described previously and quantified using spiked internal standards that includes PC-14:0/14:0, PE-14:0/14:0, PS-14:0/14:0 (Avanti Polar Lipids, Alabaster, Ala., USA), and dioctanoyl PI (Echelon Biosciences, Inc., Salt Lake City, Utah, USA).

mouse Mfsd2a [2] = assay: as above; conditions: MS, replicate columns; for Amount of each lipid species, mol percent in total phospholipid analysed: mock HEK293 cells incubated with 100 uM Arachidonic fatty acid/BSA complex overnight; for Amount of each lipid species normalized to internal standard, mol percent in total phospholipid analysed / Amount of lipid species, mol percent in total phospholipid analysed: mock HEK293 cells; for Amount of lipid species, mol percent in total phospholipid analysed: 100 uM Oleic fatty acid/BSA complex overnight
Method: as §1, §2

[3] = 100 uM Alpha-linolenic fatty acid/BSA complex overnight
[4] = 100 uM Linoleic fatty acid/BSA complex overnight
[5] = 100 uM Docosahexaenoic acid/BSA complex overnight, MS
[6] = 100 uM Eicosapentaenoic acid/BSA complex overnight, MS
[7] = 100 uM Oleic fatty acid/BSA complex overnight, MS
[8] = 100 uM Docosahexaenoic acid/BSA complex overnight
[9] = 100 uM Eicosapentaenoic acid/BSA complex overnight

SMILES	Amount of each lipid species, mol percent in total phospholipid analysed (mouse Mfsd2a [1]; MS)	Amount of lipid species, mol percent in total phospholipid analysed (mouse Mfsd2a [1]; [3])	Amount of lipid species, mol percent in total phospholipid analysed (mouse Mfsd2a [1]; [4])	Amount of each lipid species normalized to internal standard, mol percent in total phospholipid analysed (mouse Mfsd2a [1]; [5])	Amount of each lipid species normalized to internal standard, mol percent in total phospholipid analysed (mouse Mfsd2a [1]; [6])	Amount of lipid species, mol percent in total phospholipid analysed (mouse Mfsd2a [1]; [7])	Amount of each lipid species, mol percent in total phospholipid analysed (mouse Mfsd2a [2])	Amount of each lipid species normalized to internal standard, mol percent in total phospholipid analysed (mouse Mfsd2a [2]; [8])	Amount of each lipid species normalized to internal standard, mol percent in total phospholipid analysed (mouse Mfsd2a [2]; [9])	Amount of lipid species, mol percent in total phospholipid analysed (mouse Mfsd2a [2])
CCCCCCCCCCCCCCCC(=O)OC[C@@H](O)COP(=O)([O-])OCC[N+](C)(C)C [LysoPC16:0]	0.02415 mol percent and 0.0241 mol percent and 0.02855 mol percent and 0.02172 mol percent	0.02586 mol percent and 0.02533 mol percent and 0.02841 mol percent and 0.02293 mol percent	0.02176 mol percent and 0.01959 mol percent and 0.02134 mol percent and 0.02259 mol percent	0.03726 mol percent and 0.03481 mol percent and 0.03081 mol percent and 0.02684 mol percent	0.02694 mol percent and 0.02534 mol percent and 0.02456 mol percent and 0.02331 mol percent	0.01777 mol percent and 0.01495 mol percent and 0.01595 mol percent and 0.01964 mol percent	0.02322 mol percent and 0.02517 mol percent and 0.02807 mol percent	0.03115 mol percent and 0.02846 mol percent and 0.03055 mol percent	0.02508 mol percent and 0.02349 mol percent and 0.02482 mol percent	0.01539 mol percent and 0.01577 mol percent and 0.0163 mol percent
CCCCCCCCCCCCCCCCOC[C@@H](O)COP(=O)([O-])OCC[N+](C)(C)C [LysoPC16:0e]	0.008218 mol percent and 0.00827 mol percent and 0.009441 mol percent and 0.01026 mol percent	0.004349 mol percent and 0.003802 mol percent and 0.005532 mol percent and 0.004823 mol percent	0.004905 mol percent and 0.004227 mol percent and 0.005291 mol percent and 0.006453 mol percent	0.005111 mol percent and 0.004575 mol percent and 0.004499 mol percent and 0.004664 mol percent	0.005369 mol percent and 0.005332 mol percent and 0.003584 mol percent and 0.004376 mol percent	0.002972 mol percent and 0.00261 mol percent and 0.002228 mol percent and 0.001403 mol percent	0.008219 mol percent and 0.01198 mol percent and 0.009457 mol percent	0.005025 mol percent and 0.003881 mol percent and 0.00548 mol percent	0.00417 mol percent and 0.00451 mol percent and 0.003651 mol percent	0.003153 mol percent and 0.001998 mol percent and 0.003294 mol percent
CCCCCCCCCCCCCCCCCC(=O)OC[C@@H](O)COP(=O)([O-])OCC[N+](C)(C)C [LysoPC18:0]	0.006865 mol percent and 0.00639 mol percent and 0.005642 mol percent and 0.008281 mol percent	0.008875 mol percent and 0.009786 mol percent and 0.00943 mol percent and 0.009646 mol percent	0.006967 mol percent and 0.006454 mol percent and 0.007395 mol percent and 0.006903 mol percent	0.009464 mol percent and 0.008616 mol percent and 0.009301 mol percent and 0.008257 mol percent	0.006896 mol percent and 0.007974 mol percent and 0.005812 mol percent and 0.007684 mol percent	0.005262 mol percent and 0.005101 mol percent and 0.005659 mol percent and 0.004823 mol percent	0.006849 mol percent and 0.006628 mol percent and 0.006426 mol percent	0.008486 mol percent and 0.008947 mol percent and 0.009444 mol percent	0.006911 mol percent and 0.007615 mol percent and 0.006374 mol percent	0.005105 mol percent and 0.004638 mol percent and 0.005658 mol percent
CCCCCCCCCCCCCCCCCCOC[C@@H](O)COP(=O)([O-])OCC[N+](C)(C)C [LysoPC18:0e]	0.001403 mol percent and 0.001832 mol percent and 0.001957 mol percent and 0.00156 mol percent	0.001528 mol percent and 0.001007 mol percent and 0.001383 mol percent and 0.001468 mol percent	0.00128 mol percent and 0.001885 mol percent and 0.001443 mol percent and 0.001726 mol percent	0.002316 mol percent and 0.001944 mol percent and 0.002079 mol percent and 0.002217 mol percent	0.002414 mol percent and 0.001699 mol percent and 0.001986 mol percent and 0.001832 mol percent	0.002105 mol percent and 0.002254 mol percent and 0.001084 mol percent and 0.001841 mol percent	0.00137 mol percent and 0.002231 mol percent and 0.001637 mol percent	0.002177 mol percent and 0.002156 mol percent and 0.002215 mol percent	0.001609 mol percent and 0.002109 mol percent and 0.001671 mol percent	0.001802 mol percent and 0.00157 mol percent and 0.001773 mol percent
CCCCCCCCCCCCCCCC(=O)OC[C@@H](O)COP(=O)(O)OCCN [LysoPE16:0]	0.1468 mol percent and 0.08379 mol percent and 0.1077 mol percent and 0.1337 mol percent	0.1381 mol percent and 0.2428 mol percent and 0.2355 mol percent and 0.07619 mol percent	0.03967 mol percent and 0.1018 mol percent and 0.06313 mol percent and 0.02483 mol percent	0.08329 mol percent and 0.03847 mol percent and 0.07102 mol percent and 0.05717 mol percent	0.09357 mol percent and 0.09693 mol percent and 0.09655 mol percent and 0.07626 mol percent	0.04601 mol percent and 0.01705 mol percent and 0.1151 mol percent and 0.08973 mol percent	0.08991 mol percent and 0.08319 mol percent and 0.0827 mol percent	0.06318 mol percent and 0.083 mol percent and 0.06994 mol percent	0.06426 mol percent and 0.1796 mol percent and 0.1079 mol percent	0.056 mol percent and 0.03411 mol percent and 0.06706 mol percent
CCCCCCCCCCCCCC/C=C\OC[C@@H](O)COP(=O)(O)OCCN [LysoPE16:0p]	2.79 mol percent and 2.681 mol percent and 2.307 mol percent and 2.64 mol percent						3.439 mol percent and 2.895 mol percent and 2.928 mol percent			
